Reference: PubChem BioAssay (NCI)
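Assay format: 96-well plates, 48-hour exposure. GI50 = concentration required for 50% inhibition of growth. TGI is the concentration that stops growth completely.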

Assays:
Assay in all cases: DTP human tumour cell line panel, 48 h
786-0 renal = test system: 786-0 renal
A498 renal = test system: A498 renal
A549 NSCLC = test system: A549 NSCLC
ACHN renal = test system: ACHN renal
BT-549 breast = test system: BT-549 breast
CAKI-1 renal = test system: CAKI-1 renal
CCRF-CEM leukemia = test system: CCRF-CEM leukemia
COLO 205 colon = test system: COLO 205 colon
DU-145 prostate = test system: DU-145 prostate
EKVX NSCLC = test system: EKVX NSCLC
HCC-2998 colon = test system: HCC-2998 colon
HCT-116 colon = test system: HCT-116 colon
HCT-15 colon = test system: HCT-15 colon
HL-60(TB) leukemia = test system: HL-60(TB) leukemia
HOP-62 NSCLC = test system: HOP-62 NSCLC
HOP-92 NSCLC = test system: HOP-92 NSCLC
HS 578T breast = test system: HS 578T breast
HT29 colon = test system: HT29 colon
IGROV1 ovarian = test system: IGROV1 ovarian
K-562 leukemia = test system: K-562 leukemia
KM12 colon = test system: KM12 colon
LOX IMVI melanoma = test system: LOX IMVI melanoma
M14 melanoma = test system: M14 melanoma
MCF7 breast = test system: MCF7 breast
MDA-MB-231 breast = test system: MDA-MB-231 breast
MDA-MB-435 = test system: MDA-MB-435
MDA-MB-468 breast = test system: MDA-MB-468 breast
MOLT-4 leukemia = test system: MOLT-4 leukemia
NCI-H226 lung = test system: NCI-H226 lung
NCI-H23 lung = test system: NCI-H23 lung
NCI-H460 lung = test system: NCI-H460 lung
NCI-H522 lung = test system: NCI-H522 lung
NCI/ADR-RES ovarian = test system: NCI/ADR-RES ovarian
OVCAR-3 ovarian = test system: OVCAR-3 ovarian
OVCAR-4 ovarian = test system: OVCAR-4 ovarian
OVCAR-5 ovarian = test system: OVCAR-5 ovarian
OVCAR-8 ovarian = test system: OVCAR-8 ovarian
PC-3 prostate = test system: PC-3 prostate
RPMI-8226 leukemia = test system: RPMI-8226 leukemia
RXF 393 renal = test system: RXF 393 renal
SF-268 CNS = test system: SF-268 CNS
SF-295 CNS = test system: SF-295 CNS
SF-539 CNS = test system: SF-539 CNS
SK-MEL-2 melanoma = test system: SK-MEL-2 melanoma
SK-MEL-28 melanoma = test system: SK-MEL-28 melanoma
SK-MEL-5 melanoma = test system: SK-MEL-5 melanoma
SK-OV-3 ovarian = test system: SK-OV-3 ovarian
SN12C renal = test system: SN12C renal
SNB-19 CNS = test system: SNB-19 CNS
SNB-75 CNS = test system: SNB-75 CNS
SR leukemia = test system: SR leukemia
SW-620 colon = test system: SW-620 colon
T-47D breast = test system: T-47D breast
TK-10 renal = test system: TK-10 renal
U251 CNS = test system: U251 CNS
UACC-257 melanoma = test system: UACC-257 melanoma
UACC-62 melanoma = test system: UACC-62 melanoma
UO-31 renal = test system: UO-31 renal

`COc1sc(/C=N/NC(=O)c2[nH]c3ccc(Br)cc3c2-c2ccccc2)cc1Br` showed a GI50 (786-0 renal) of 2.84 µM, a TGI (786-0 renal) greater than 100 µM and a GI50 (A498 renal) of 5.44 µM. It also gave a TGI (A498 renal) of 39.4 µM, a GI50 (A549 NSCLC) of 3.35 µM and a TGI (A549 NSCLC) greater than 100 µM. It also gave a GI50 (ACHN renal) of 3.27 µM, a TGI (ACHN renal) greater than 100 µM and a GI50 (BT-549 breast) of 3.3 µM. The TGI (BT-549 breast) was 8.1 µM, the GI50 (CAKI-1 renal) was 0.892 µM and the TGI (CAKI-1 renal) was greater than 100 µM. It also gave a GI50 (CCRF-CEM leukemia) of 2.11 µM, a TGI (CCRF-CEM leukemia) greater than 100 µM and a GI50 (COLO 205 colon) of 0.223 µM. It also gave a TGI (COLO 205 colon) of 0.516 µM, a GI50 (DU-145 prostate) of 3.36 µM and a TGI (DU-145 prostate) greater than 100 µM. It also gave a GI50 (EKVX NSCLC) of 5.7 µM, a TGI (EKVX NSCLC) greater than 100 µM and a GI50 (HCC-2998 colon) of 3.74 µM. For the same molecule, the TGI (HCC-2998 colon) was greater than 100 µM, the GI50 (HCT-116 colon) was 1.25 µM and the TGI (HCT-116 colon) was greater than 100 µM. The GI50 (HCT-15 colon) was 3.27 µM, the TGI (HCT-15 colon) was greater than 100 µM and the GI50 (HL-60(TB) leukemia) was 1.62 µM. For the same molecule, the TGI (HL-60(TB) leukemia) was 5.53 µM, the GI50 (HOP-62 NSCLC) was 0.353 µM and the TGI (HOP-62 NSCLC) was 37.5 µM. The GI50 (HOP-92 NSCLC) was 26.5 µM, the TGI (HOP-92 NSCLC) was greater than 100 µM and the GI50 (HS 578T breast) was 1.92 µM. For the same molecule, the TGI (HS 578T breast) was greater than 100 µM, the GI50 (HT29 colon) was 1.16 µM and the TGI (HT29 colon) was greater than 100 µM. The GI50 (IGROV1 ovarian) was 3.5 µM, the TGI (IGROV1 ovarian) was greater than 100 µM and the GI50 (K-562 leukemia) was 0.508 µM. For the same molecule, the TGI (K-562 leukemia) was greater than 100 µM, the GI50 (KM12 colon) was 3.03 µM and the TGI (KM12 colon) was greater than 100 µM. The GI50 (LOX IMVI melanoma) was 2.93 µM, the TGI (LOX IMVI melanoma) was 35.8 µM and the GI50 (M14 melanoma) was 2.25 µM. For the same molecule, the TGI (M14 melanoma) was greater than 100 µM, the GI50 (MCF7 breast) was 1.54 µM and the TGI (MCF7 breast) was greater than 100 µM. It also gave a GI50 (MDA-MB-231 breast) of 3.21 µM, a TGI (MDA-MB-231 breast) greater than 100 µM and a GI50 (MDA-MB-435) of 0.324 µM. It also gave a TGI (MDA-MB-435) of 1.8 µM, a GI50 (MDA-MB-468 breast) of 2.18 µM and a TGI (MDA-MB-468 breast) of 6.88 µM. For the same molecule, the GI50 (MOLT-4 leukemia) was 3.16 µM, the TGI (MOLT-4 leukemia) was 35.6 µM and the GI50 (NCI-H226 lung) was 2.87 µM. The TGI (NCI-H226 lung) was 68.9 µM, the GI50 (NCI-H23 lung) was 3.67 µM and the TGI (NCI-H23 lung) was greater than 100 µM. It also gave a GI50 (NCI-H460 lung) of 3.03 µM, a TGI (NCI-H460 lung) of 12.4 µM and a GI50 (NCI-H522 lung) of 0.259 µM. For the same molecule, the TGI (NCI-H522 lung) was 0.686 µM, the GI50 (NCI/ADR-RES ovarian) was 2.12 µM and the TGI (NCI/ADR-RES ovarian) was 6.45 µM. For the same molecule, the GI50 (OVCAR-3 ovarian) was 1.2 µM, the TGI (OVCAR-3 ovarian) was 12 µM and the GI50 (OVCAR-4 ovarian) was 9.78 µM. It also gave a TGI (OVCAR-4 ovarian) greater than 100 µM, a GI50 (OVCAR-5 ovarian) of 3.39 µM and a TGI (OVCAR-5 ovarian) of 69.9 µM. For the same molecule, the GI50 (OVCAR-8 ovarian) was 0.499 µM, the TGI (OVCAR-8 ovarian) was greater than 100 µM and the GI50 (PC-3 prostate) was 3.14 µM. The TGI (PC-3 prostate) was greater than 100 µM, the GI50 (RPMI-8226 leukemia) was 1.92 µM and the TGI (RPMI-8226 leukemia) was greater than 100 µM. It also gave a GI50 (RXF 393 renal) of 4.27 µM, a TGI (RXF 393 renal) greater than 100 µM and a GI50 (SF-268 CNS) of 2.82 µM. For the same molecule, the TGI (SF-268 CNS) was greater than 100 µM, the GI50 (SF-295 CNS) was 2.84 µM and the TGI (SF-295 CNS) was greater than 100 µM. It also gave a GI50 (SF-539 CNS) of 1.93 µM, a TGI (SF-539 CNS) of 5.51 µM and a GI50 (SK-MEL-2 melanoma) of 5.12 µM. For the same molecule, the TGI (SK-MEL-2 melanoma) was greater than 100 µM, the GI50 (SK-MEL-28 melanoma) was 4.89 µM and the TGI (SK-MEL-28 melanoma) was greater than 100 µM. The GI50 (SK-MEL-5 melanoma) was 2.12 µM, the TGI (SK-MEL-5 melanoma) was 4.97 µM and the GI50 (SK-OV-3 ovarian) was 0.365 µM. It also gave a TGI (SK-OV-3 ovarian) greater than 100 µM, a GI50 (SN12C renal) of 2.91 µM and a TGI (SN12C renal) greater than 100 µM. For the same molecule, the GI50 (SNB-19 CNS) was 3.98 µM, the TGI (SNB-19 CNS) was greater than 100 µM and the GI50 (SNB-75 CNS) was 0.359 µM. It also gave a TGI (SNB-75 CNS) of 25.3 µM, a GI50 (SR leukemia) of 1.1 µM and a TGI (SR leukemia) greater than 100 µM. For the same molecule, the GI50 (SW-620 colon) was 3.28 µM, the TGI (SW-620 colon) was greater than 100 µM and the GI50 (T-47D breast) was 45.2 µM. The TGI (T-47D breast) was greater than 100 µM, the GI50 (TK-10 renal) was 88.9 µM and the TGI (TK-10 renal) was greater than 100 µM. It also gave a GI50 (U251 CNS) of 3.65 µM, a TGI (U251 CNS) greater than 100 µM and a GI50 (UACC-257 melanoma) greater than 100 µM. For the same molecule, the TGI (UACC-257 melanoma) was greater than 100 µM, the GI50 (UACC-62 melanoma) was 0.988 µM and the TGI (UACC-62 melanoma) was greater than 100 µM. The GI50 (UO-31 renal) was 4.21 µM and the TGI (UO-31 renal) was greater than 100 µM.
